From ChEMBL document CHEMBL4419169, “Novel Ferroportin Inhibitors” (2018)
Calls of active or inactive are those of the source. The calls are words filed in the database; no cut-off is given here.

How the values were obtained:
[1] = target: T1, Ferroportin (Mus musculus) (UniProt Q9JHI9); assay: Inhibition of ferroportin in mouse J774 cells assessed as induce ferroportin ubiquitination and degradation at 0.3 uM incubated for 10 mins by immunoprecipitation assay; format: cell-based
T1 sequence (whole entry): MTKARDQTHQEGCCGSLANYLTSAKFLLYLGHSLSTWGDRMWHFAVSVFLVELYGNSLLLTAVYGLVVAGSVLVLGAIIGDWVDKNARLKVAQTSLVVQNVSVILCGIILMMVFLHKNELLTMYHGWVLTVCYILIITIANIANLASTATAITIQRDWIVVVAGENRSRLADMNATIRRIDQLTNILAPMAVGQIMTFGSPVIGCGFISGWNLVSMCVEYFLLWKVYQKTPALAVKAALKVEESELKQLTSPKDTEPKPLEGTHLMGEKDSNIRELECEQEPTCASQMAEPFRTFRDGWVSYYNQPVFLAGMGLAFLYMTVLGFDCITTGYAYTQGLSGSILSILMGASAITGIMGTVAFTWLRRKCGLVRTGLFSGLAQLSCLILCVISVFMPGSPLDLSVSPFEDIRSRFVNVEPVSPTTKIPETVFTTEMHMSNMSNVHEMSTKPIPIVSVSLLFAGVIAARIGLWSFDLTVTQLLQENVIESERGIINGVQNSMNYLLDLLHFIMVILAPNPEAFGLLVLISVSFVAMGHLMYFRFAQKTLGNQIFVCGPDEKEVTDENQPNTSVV

[2] = target: T1, Ferroportin (Mus musculus); assay: Inhibition of ferroportin in mouse J774 cells assessed as induce ferroportin ubiquitination and degradation at 0.3 uM incubated for 120 mins by immunoprecipitation assay; format: cell-based
[3] = target: T1, Ferroportin (Mus musculus); assay: Inhibition of ferroportin in mouse J774 cells assessed as induce ferroportin ubiquitination and degradation at 0.8 uM incubated for 10 mins by immunoprecipitation assay; format: cell-based
[4] = target: T1, Ferroportin (Mus musculus); assay: Inhibition of ferroportin in mouse J774 cells assessed as induce ferroportin ubiquitination and degradation at 0.8 uM incubated for 120 mins by immunoprecipitation assay; format: cell-based
[5] = target: T1, Ferroportin (Mus musculus); assay: Inhibition of ferroportin in mouse J774 cells assessed as induce ferroportin ubiquitination and degradation at 0.1 uM incubated for 10 mins by immunoprecipitation assay; format: cell-based
[6] = target: T1, Ferroportin (Mus musculus); assay: Inhibition of ferroportin in mouse J774 cells assessed as induce ferroportin ubiquitination and degradation at 0.1 uM incubated for 120 mins by immunoprecipitation assay; format: cell-based
[7] = tested on: Mus musculus; assay: Prevention of hyperferremia in iron overloaded beta2-microglobulin deficient female mouse assessed as reduction in serum iron level at 60 mg/kg, po measured after 3 hrs relative to control; format: functional; set-up: scale not given: the % may be the effect or the level left
[8] = tested on: Mus musculus; assay: Prevention of hyperferremia in iron overloaded beta2-microglobulin deficient male mouse assessed as reduction in serum iron level at 60 mg/kg, po measured after 3 hrs relative to control; format: functional; set-up: scale not given: the % may be the effect or the level left
[9] = tested on: Mus musculus; assay: Disease modifying capacity in mouse model of transfusion-independent beta-thalassemia intermedia assessed as decrease in bone marrow ROS levels level at 60 mg/kg, po BID for 27 days relative to control; format: functional; set-up: scale not given: the % may be the effect or the level left
[10] = tested on: Rattus norvegicus; assay: Prevention of iron absorption in orally dosed anemic Wistar rat model of iron absorption assessed as inhibition of increase in serum iron pre-dosed 1 hr before ferrous sulfate dosing and measured 3 hours after iron dosing; format: functional, organism-based
[11] = target: T1, Ferroportin (Mus musculus); assay: Inhibition of ferroportin in mouse J774 cells assessed as induce ferroportin ubiquitination and degradation at […] incubated for 10 mins by immunoprecipitation assay; format: cell-based
[12] = target: T1, Ferroportin (Mus musculus); assay: Inhibition of ferroportin in mouse J774 cells assessed as induce ferroportin ubiquitination and degradation at […] incubated for 120 mins by immunoprecipitation assay; format: cell-based
[13] = tested on: Mus musculus; assay: Induction of hypoferremia in wild type C57BL/6 mouse assessed as decrease in serum iron levels at 10 mg/kg, po measured after 3 hrs post dose; format: functional; set-up: scale not given: the % may be the effect or the level left
[14] = tested on: Mus musculus; assay: Induction of hypoferremia in wild type C57BL/6 mouse assessed as decrease in serum iron levels at 30 mg/kg, po measured after 3 hrs post dose; format: functional; set-up: scale not given: the % may be the effect or the level left
[15] = tested on: Mus musculus; assay: Induction of hypoferremia in wild type C57BL/6 mouse assessed as decrease in serum iron levels at 100 mg/kg, po measured after 3 hrs post dose; format: functional; set-up: scale not given: the % may be the effect or the level left
[16] = tested on: Rattus norvegicus; assay: Prevention of iron absorption in anemic Wistar rat model of iron absorption assessed as inhibition of increase in serum iron at 3 mg/kg, po pre-dosed 1 hr before ferrous sulfate dosing and measured 3 hours after iron dosing; format: functional
[17] = tested on: Rattus norvegicus; assay: Prevention of iron absorption in anemic Wistar rat model of iron absorption assessed as inhibition of increase in serum iron at 10 mg/kg, po pre-dosed 1 hr before ferrous sulfate dosing and measured 3 hours after iron dosing; format: functional
[18] = tested on: Rattus norvegicus; assay: Prevention of iron absorption in anemic Wistar rat model of iron absorption assessed as inhibition of increase in serum iron at 30 mg/kg, po pre-dosed 1 hr before ferrous sulfate dosing and measured 3 hours after iron dosing; format: functional
[19] = tested on: Mus musculus; assay: Prevention of hyperferremia in iron overloaded beta2-microglobulin deficient female mouse assessed as reduction in serum iron level at 20 mg/kg, po measured after 3 hrs relative to control; format: functional; set-up: scale not given: the % may be the effect or the level left
[20] = tested on: Mus musculus; assay: Prevention of hyperferremia in iron overloaded beta2-microglobulin deficient male mouse assessed as reduction in serum iron level at 20 mg/kg, po measured after 3 hrs relative to control; format: functional; set-up: scale not given: the % may be the effect or the level left
[21] = tested on: Mus musculus; assay: Decrease in serum iron in mouse model of transfusion-independent beta-thalassemia intermedia at 20 mg/kg, po BID for 20 days relative to control; format: functional; set-up: scale not given: the % may be the effect or the level left
[22] = tested on: Mus musculus; assay: Decrease in serum iron in mouse model of transfusion-independent beta-thalassemia intermedia at 60 mg/kg, po BID for 20 days relative to control; format: functional; set-up: scale not given: the % may be the effect or the level left
[23] = tested on: Mus musculus; assay: Disease modifying capacity in mouse model of transfusion-independent beta-thalassemia intermedia assessed as increase in blood erythrocyte counts at 20 mg/kg, po BID for 20 days relative to control; format: functional
[24] = tested on: Mus musculus; assay: Disease modifying capacity in mouse model of transfusion-independent beta-thalassemia intermedia assessed as increase in blood erythrocyte counts at 60 mg/kg, po BID for 20 days relative to control; format: functional
[25] = tested on: Mus musculus; assay: Disease modifying capacity in mouse model of transfusion-independent beta-thalassemia intermedia assessed as decrease in blood reticulocyte counts at 20 mg/kg, po BID for 20 days relative to control; format: functional; set-up: scale not given: the % may be the effect or the level left
[26] = tested on: Mus musculus; assay: Disease modifying capacity in mouse model of transfusion-independent beta-thalassemia intermedia assessed as decrease in blood reticulocyte counts at 60 mg/kg, po BID for 20 days relative to control; format: functional; set-up: scale not given: the % may be the effect or the level left
[27] = tested on: Mus musculus; assay: Disease modifying capacity in mouse model of transfusion-independent beta-thalassemia intermedia assessed as increase in hematocrit levels at 20 mg/kg, po BID for 20 days relative to control; format: functional
[28] = tested on: Mus musculus; assay: Disease modifying capacity in mouse model of transfusion-independent beta-thalassemia intermedia assessed as increase in hematocrit levels at 60 mg/kg, po BID for 20 days relative to control; format: functional
[29] = tested on: Mus musculus; assay: Disease modifying capacity in mouse model of transfusion-independent beta-thalassemia intermedia assessed as decrease in RDW level at 20 mg/kg, po BID for 20 days relative to control; format: functional; set-up: scale not given: the % may be the effect or the level left
[30] = tested on: Mus musculus; assay: Disease modifying capacity in mouse model of transfusion-independent beta-thalassemia intermedia assessed as decrease in RDW level at 60 mg/kg, po BID for 20 days relative to control; format: functional; set-up: scale not given: the % may be the effect or the level left
[31] = tested on: Mus musculus; assay: Disease modifying capacity in mouse model of transfusion-independent beta-thalassemia intermedia assessed as decrease in leukocyte counts level at 20 mg/kg, po BID for 20 days relative to control; format: functional; set-up: scale not given: the % may be the effect or the level left
[32] = tested on: Mus musculus; assay: Disease modifying capacity in mouse model of transfusion-independent beta-thalassemia intermedia assessed as decrease in leukocyte counts level at 60 mg/kg, po BID for 20 days relative to control; format: functional; set-up: scale not given: the % may be the effect or the level left
[33] = tested on: Mus musculus; assay: Disease modifying capacity in mouse model of transfusion-independent beta-thalassemia intermedia assessed as decrease in bone marrow ROS levels level at 60 mg/kg, po BID for 20 days relative to control; format: functional; set-up: scale not given: the % may be the effect or the level left
[34] = tested on: Mus musculus; assay: Disease modifying capacity in mouse model of transfusion-independent beta-thalassemia intermedia assessed as decrease in [58Fe] spleen iron content at 20 mg/kg, po BID for 20 days relative to control; format: functional; set-up: scale not given: the % may be the effect or the level left
[35] = tested on: Mus musculus; assay: Disease modifying capacity in mouse model of transfusion-independent beta-thalassemia intermedia assessed as decrease in [58Fe] spleen iron content at 60 mg/kg, po BID for 20 days relative to control; format: functional; set-up: scale not given: the % may be the effect or the level left
[36] = tested on: Mus musculus; assay: Disease modifying capacity in mouse model of transfusion-independent beta-thalassemia intermedia assessed as prevention of liver [58Fe] loading at 20 mg/kg, po BID for 20 days relative to control; format: functional
[37] = tested on: Mus musculus; assay: Disease modifying capacity in mouse model of transfusion-independent beta-thalassemia intermedia assessed as prevention of liver [58Fe] loading at 60 mg/kg, po BID for 20 days relative to control; format: functional
[38] = tested on: Mus musculus; assay: Disease modifying capacity in mouse model of transfusion-independent beta-thalassemia intermedia assessed as decrease in serum erythropoietin at 20 mg/kg, po BID for 20 days relative to control; format: functional; set-up: scale not given: the % may be the effect or the level left
[39] = tested on: Mus musculus; assay: Disease modifying capacity in mouse model of transfusion-independent beta-thalassemia intermedia assessed as decrease in serum erythropoietin at 60 mg/kg, po BID for 20 days relative to control; format: functional; set-up: scale not given: the % may be the effect or the level left
[40] = tested on: Mus musculus; assay: Disease modifying capacity in mouse model of transfusion-independent beta-thalassemia intermedia assessed as decrease in spleen erythroferrone-mRNA at 20 mg/kg, po BID for 20 days relative to control; format: functional; set-up: scale not given: the % may be the effect or the level left
[41] = tested on: Mus musculus; assay: Induction of hypoferremia in orally dosed wild type C57BL/6 mouse assessed as decrease in serum iron levels measured after 3 hrs post dose; format: functional, organism-based
[42] = tested on: Mus musculus; assay: Prevention of hyperferremia in iron overloaded beta2-microglobulin deficient mouse assessed as reduction in serum iron level at 50 mg/kg, po measured after 3 hrs relative to control; format: functional, organism-based

O=C(NCc1ncccc1F)c1cnn(CCNCCc2nc3ccccc3[nH]2)c1
inhibition [1]: Active
inhibition [2]: Active

O=C(NCc1ncccc1F)c1coc(CCNCc2nc3ccccc3[nH]2)n1
inhibition [3]: Active
inhibition [4]: Active

Cl.Cl.Cl.O=C(NCc1ncccc1F)c1coc(CCNCCc2nc3ccccc3[nH]2)n1 [VAMIFEPORT HYDROCHLORIDE]
inhibition [5]: Active
inhibition [6]: Active
Activity [7]: 74%
Activity [8]: 83%
Activity [9]: 75%

Cc1cccnc1CNC(=O)c1csc(CCNCc2nc3ccccc3[nH]2)n1
Activity [10]: Dose-dependent effect

O=C(NCc1ncccc1F)c1cnc(CCNCCc2nc3ccccc3[nH]2)o1
inhibition [11]: Active
inhibition [12]: Active
Activity [13]: 0%
Activity [14]: 28%
Activity [15]: 51%
inhibition in vivo at 3 mg/kg [16]: 2.1%
inhibition in vivo at 10 mg/kg [17]: 42.6%
inhibition in vivo at 30 mg/kg [18]: 64.9%
Activity [19]: 31%
Activity [20]: 31%
Activity [7]: 52%
Activity [21]: 49%
Activity [22]: 66%
Activity [23]: 4%
Activity [24]: 8%
Activity [25]: 8%
Activity [26]: 39%
Activity [27]: 0%
Activity [28]: 4%
Activity [29]: 3%
Activity [30]: 16%
Activity [31]: 32%
Activity [32]: 44%
Activity [33]: 45%
Activity [34]: 14%
Activity [35]: 48%
Activity [36]: 12%
Activity [37]: 40%
Activity [38]: 64%
Activity [39]: 78%
Activity [40]: 82%

O=C(NCc1ncccc1F)c1csc(CCNCCc2nc3ccccc3[nH]2)n1
inhibition [1]: Active
inhibition [2]: Active
Activity [41]: Dose-dependent effect
Activity [42]: Active
